According to patent US7939548B2, “Certain chemical entities, compositions, and methods” (Cytokinetics, Inc., priority 2006, dated 2011):
pIC50: −log10 of the molar value.

target: T1, chicken gizzard smooth muscle myosin subfragment-1 chemically crosslinked to either cardiac or skeletal actin (Gallus gallus, UniProt P10587); assay: Smooth muscle myosin ATPase dose response assay (pyruvate kinase/horseradish peroxidase/pyruvate oxidase-coupled); assay type: biochemical; settings: ATPase activity of crosslinked smooth muscle actomyosin (subfragment-1); amplex red fluorescence; 4 parameter fit; read-out: IC50 Arithmetic Mean
T1 construct: chicken gizzard smooth muscle myosin subfragment-1
Procedure: Screening assays were performed using a pyruvate kinase and lactate dehydrogenase-coupled ATPase assay containing the following reagents: Potassium PIPES (50 mM), MgCl2 (3 mM), KCl (100 mM), ATP (0.15 mM), DTT (1 mM), BSA (0.1 mg/ml), NADH (0.5 mM), PEP (1.5 mM), pyruvate kinase (4 U/ml), lactate dehydrogenase (8 U/ml), and antifoam (50 ppm) (concentrations expressed are final assay concentrations). The pH was adjusted to 6.80 at 22 °C by addition of potassium hydroxide. Lead optimization assays were performed with a more sensitive pyruvate kinase/horseradish peroxidase/pyruvate oxidase-coupled ATPase assay containing the following reagents: Potassium PIPES (12 mM), MgCl2 (2 mM), KCl (100 mM), ATP (0.15 mM), BSA (0.05 mg/ml), potassium phosphate (2 mM), amplex red (0.1 mM), PEP (0.1 mM), pyruvate kinase (4 U/ml), horseradish peroxidase (0.5 U/ml), pyruvate oxidase (0.5 U/ml), and antifoam (50 ppm) (concentrations expressed are final assay concentrations). The pH was adjusted to 7.00 at 22 °C by addition of potassium hydroxide.
The protein components specific to this assay are chicken gizzard smooth muscle myosin subfragment-1 that has been chemically crosslinked to either cardiac or skeletal actin using an excess of 1-Ethyl-3-[3-dimethylaminopropyl]carbodiimide hydrochloride and N-hydroxysuccinimide. The exact concentration of the crosslinked smooth muscle myosin in the assay is determined empirically, by titration to achieve a desired rate of ATP hydrolysis. The concentration varies between protein preparations due to variations in the fraction of active molecules in each preparation.
Compound dose response assays are performed by first preparing a dilution series of test compound, each with an assay mixture containing potassium PIPES, MgCl2, KCl, ATP, BSA, potassium phosphate, amplex red, PEP, crosslinked smooth muscle actomyosin (subfragment-1), antifoam, and water. The assay is started by adding an equal volume of solution containing potassium Pipes, MgCl2, KCl, BSA, potassium phosphate, pyruvate kinase, horseradish peroxidase, pyruvate oxidase, antifoam, and water. ATP hydrolysis is monitored by measuring the fluorescence of amplex red (excitation at 480 nm, emission at 615 nm). The resulting dose response curve is fit by the 4 parameter equation y=Bottom+((Top-Bottom)/(1+((IC50/X)^Hill))). The IC50 is defined as the concentration at which ATPase activity is midway between the top and bottom of the dose response curve.

| Compound | pIC50 |
| --- | --- |
| NCc1cccc(CNC(=O)c2cc(-c3ccncc3)cnc2NCCc2cccc(F)c2)n1 [N-{[6-(aminomethyl)(2-pyridyl)]methyl}(2-{[2-(3-fluorophenyl)ethyl]amino}-5-(4-pyridyl)(3-pyridyl))carboxamide] | 5.01 |
| C/C=C/c1nc(NCCc2cccc(F)c2)c(C(=O)NCc2cccnc2)cc1Br [(6-((1E)prop-1-enyl)-5-bromo-2-{[2-(3-fluorophenyl)ethyl]amino}(3-pyridyl))-N-(3-pyridylmethyl)carboxamide] | 6.11 |
| CNC(=O)CNC(=O)c1cc(-c2ccccc2C#N)cnc1NCCc1cccc(F)c1 [2-[(5-(2-cyanophenyl)-2-{[2-(3-fluorophenyl)ethyl]amino}(3-pyridyl))carbonylamino]-N-methylacetamide] | 4.75 |
| COCCCNc1ccc(C(=O)NCc2cccnc2)c(NCCc2cccc(F)c2)n1 [(2-{[2-(3-fluorophenyl)ethyl]amino}-6-[(3-methoxypropyl)amino](3-pyridyl))-N-(3-pyridylmethyl)carboxamide] | 4.96 |
| Cn1cc(-c2cnc(NCCc3cccc(F)c3)c(C(=O)NCc3cccc(CN)n3)c2)cn1 [N-{[6-(aminomethyl)(2-pyridyl)]methyl}(2-{[2-(3-fluorophenyl)ethyl]amino}-5-(1-methylpyrazol-4-yl)(3-pyridyl))carboxamide] | 4.75 |
| COCCCc1ccc(C(=O)NCc2cccnc2)c(NCCc2cccc(F)c2)n1 [(2-{[2-(3-fluorophenyl)ethyl]amino}-6-(3-methoxypropyl)(3-pyridyl))-N-(3-pyridylmethyl)carboxamide] | 5.09 |
| O=C(NCc1cccc(CN2C(=O)c3ccccc3C2=O)n1)c1cc(Br)cnc1NCCc1cccc(F)c1 [N-({6-[(1,3-dioxobenzo[c]azolin-2-yl)methyl](2-pyridyl)}methyl)(5-bromo-2-{[2-(3-fluorophenyl)ethyl]amino}(3-pyridyl))carboxamide] | 5.01 |
| CC(O)CN(C)c1ccc(C(=O)NCc2cccnc2)c(NCCc2cccc(F)c2)n1 (stereo not shown) [(2-{[2-(3-fluorophenyl)ethyl]amino}-6-[(2-hydroxypropyl)methylamino](3-pyridyl))-N-(3-pyridylmethyl)carboxamide] | 4.98 |
| CN(CCO)c1ccc(C(=O)NCc2cccnc2)c(NCCc2cccc(F)c2)n1 [(2-{[2-(3-fluorophenyl)ethyl]amino}-6-[(2-hydroxyethyl)methylamino](3-pyridyl))-N-(3-pyridylmethyl)carboxamide] | 4.34 |
| N#Cc1ccccc1-c1cnc(NCCc2cccc(F)c2)c(C(=O)NCc2cccc(CN)n2)c1 [N-{[6-(aminomethyl)(2-pyridyl)]methyl}(5-(2-cyanophenyl)-2-{[2-(3-fluorophenyl)ethyl]amino}(3-pyridyl))carboxamide] | 5.22 |
| O=C(NCc1cccnc1)c1ccc(NCCCO)nc1NCCc1cccc(F)c1 [(2-{[2-(3-fluorophenyl)ethyl]amino}-6-[(3-hydroxypropyl)amino](3-pyridyl))-N-(3-pyridylmethyl)carboxamide] | 5.07 |
| CNC(=O)c1ccc(C(=O)NCc2cccnc2)c(NCCc2cccc(F)c2)n1 [(2-{[2-(3-fluorophenyl)ethyl]amino}-6-(N-methylcarbamoyl)(3-pyridyl))-N-(3-pyridylmethyl)carboxamide] | 4.36 |
| CN(C)C(=N)c1ccc(C(=O)NCc2cccnc2)c(NCCc2cccc(F)c2)n1 [(6-[(dimethylamino)iminomethyl]-2-{[2-(3-fluorophenyl)ethyl]amino}(3-pyridyl))-N-(3-pyridylmethyl)carboxamide] | 4.76 |
| CC(=O)N(C)c1ccc(C(=O)NCc2cccnc2)c(NCCc2cccc(F)c2)n1 [N-(6-{[2-(3-fluorophenyl)ethyl]amino}-5-[N-(3-pyridylmethyl)carbamoyl](2-pyridyl))-N-methylacetamide] | 4.47 |
| NCc1ncccc1CNC(=O)c1cc(F)cnc1NCCc1cccc(F)c1 [N-{[2-(aminomethyl)(3-pyridyl)]methyl}(5-fluoro-2-{[2-(3-fluorophenyl)ethyl]amino}(3-pyridyl))carboxamide] | 5.57 |
| O=C(NCc1cccnc1)c1ccc(NCCO)nc1NCCc1cccc(F)c1 [(2-{[2-(3-fluorophenyl)ethyl]amino}-6-[(2-hydroxyethyl)amino](3-pyridyl))-N-(3-pyridylmethyl)carboxamide] | 4.88 |
| CN(C)C(=O)CCCCNc1ccc(C(=O)NCc2cccnc2)c(NCCc2cccc(F)c2)n1 [5-[(6-{[2-(3-fluorophenyl)ethyl]amino}-5-[N-(3-pyridylmethyl)carbamoyl](2-pyridyl))amino]-N,N-dimethylpentanamide] | 4.26 |
| C=C(OCC)c1ccc(C(=O)NCc2cccnc2)c(NCCc2cccc(F)c2)n1 [(6-(1-ethoxyvinyl)-2-{[2-(3-fluorophenyl)ethyl]amino}(3-pyridyl))-N-(3-pyridylmethyl)carboxamide] | 6.15 |
| O=C(NCc1ccccn1)c1cc(Br)c(Cl)nc1NCCc1cccc(F)c1 [(5-bromo-6-chloro-2-{[2-(3-fluorophenyl)ethyl]amino}(3-pyridyl))-N-(2-pyridylmethyl)carboxamide] | 4.76 |
| COCCNc1ccc(C(=O)NCc2cccnc2)c(NCCc2cccc(F)c2)n1 [(2-{[2-(3-fluorophenyl)ethyl]amino}-6-[(2-methoxyethyl)amino](3-pyridyl))-N-(3-pyridylmethyl)carboxamide] | 5.12 |
| O=C(O)c1cc(Br)cnc1NCCc1cccc(F)c1 [5-bromo-2-{[2-(3-fluorophenyl)ethyl]amino}pyridine-3-carboxylic acid] | 4.95 |
| CN(C)/C(=N/C#N)c1ccc(C(=O)NCc2cccnc2)c(NCCc2cccc(F)c2)n1 [(6-[(1E)-1-(dimethylamino)-2-cyano-2-azavinyl]-2-{[2-(3-fluorophenyl)ethyl]amino}(3-pyridyl))-N-(3-pyridylmethyl)carboxamide] | 5.29 |
| CC(=O)c1ccc(C(=O)NCc2cccnc2)c(NCCc2cccc(F)c2)n1 [(6-acetyl-2-{[2-(3-fluorophenyl)ethyl]amino}(3-pyridyl))-N-(3-pyridylmethyl)carboxamide] | 4.61 |
| COC(=O)/C=C(\C)c1ccc(C(=O)NCc2cccnc2)c(NCCc2cccc(F)c2)n1 [methyl (2E)-3-(6-{[2-(3-fluorophenyl)ethyl]amino}-5-[N-(3-pyridylmethyl)carbamoyl](2-pyridyl))but-2-enoate] | 5.46 |
| O=C(CCCCNc1ccc(C(=O)NCc2cccnc2)c(NCCc2cccc(F)c2)n1)NCc1cccnc1 [5-[(6-{[2-(3-fluorophenyl)ethyl]amino}-5-[N-(3-pyridylmethyl)carbamoyl](2-pyridyl))amino]-N-(3-pyridylmethyl)pentanamide] | 4.31 |
| NCc1cccc(CNC(=O)c2cc(-c3ccccn3)cnc2NCCc2cccc(F)c2)n1 [N-{[6-(aminomethyl)(2-pyridyl)]methyl}(2-{[2-(3-fluorophenyl)ethyl]amino}-5-(2-pyridyl)(3-pyridyl))carboxamide] | 4.80 |
| NCc1cccc(CNC(=O)c2cc(Br)cnc2NCCc2cccc(F)c2)n1 [N-{[6-(aminomethyl)(2-pyridyl)]methyl}(5-bromo-2-{[2-(3-fluorophenyl)ethyl]amino}(3-pyridyl))carboxamide] | 4.82 |
| O=C(NCc1cccnc1)c1cccnc1NCCc1cccc(F)c1 [(2-{[2-(3-fluorophenyl)ethyl]amino}(3-pyridyl))-N-(3-pyridylmethyl)carboxamide] | 4.57 |
